From patent publication US11021448B2, “1,3-dihydro-1,4-benzodiazepine-2-thiones for the treatment of CNS related diseases” (priority 2016, dated 2021)
pIC50: −log10 of the molar value. Like-named read-outs stand apart in the source and are kept apart here.

Target: T1, hM1 (Homo sapiens, UniProt P11229)
T1 construct: expressed in transfected cells; host or cells: CHO
T1 sequence (P11229 1-460): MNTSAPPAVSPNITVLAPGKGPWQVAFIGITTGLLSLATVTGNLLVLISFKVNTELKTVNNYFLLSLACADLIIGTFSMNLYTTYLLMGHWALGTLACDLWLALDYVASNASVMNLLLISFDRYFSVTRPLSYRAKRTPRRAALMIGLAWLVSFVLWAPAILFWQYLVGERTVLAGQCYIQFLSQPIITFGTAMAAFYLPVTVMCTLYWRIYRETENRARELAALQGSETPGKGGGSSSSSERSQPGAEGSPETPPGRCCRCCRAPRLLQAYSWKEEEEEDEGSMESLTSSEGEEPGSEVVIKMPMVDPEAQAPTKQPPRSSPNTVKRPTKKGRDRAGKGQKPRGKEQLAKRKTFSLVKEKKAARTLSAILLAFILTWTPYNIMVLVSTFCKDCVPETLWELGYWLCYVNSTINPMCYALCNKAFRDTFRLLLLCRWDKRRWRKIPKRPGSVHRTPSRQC
Test: FLIPR intracellular calcium assay for modulator activity at the muscarinic M1 receptor in CHO human M1 cells
Type: cell-based
Settings: for IC50: CHO human M1, with EC20 of acetylcholine, FLIPR, read-out: IC50 value hM1 (converted)
Protocol: The assay study the effect of several concentrations of test compounds on basal or acetylcholine-stimulated Ca^2+ levels using FLIPR.
The cell plate and the diluted compounds (1% DMSO final concentration) are placed on the platform of the FLIPR and the door closed. A signal test to check background fluorescence and basal fluorescence signal is performed. Laser intensity is adjusted if necessary. Two minutes preincubation with the diluted test compounds is provide to determine any agonist activity on the M1 receptor by comparison to 30 nM Acetylcholine control. In order to determine any modulator activity the diluted compounds were added to cells and after two minutes preincubation, the EC20 of acetylcholine is added followed by another two minutes preincubation before the measurement of intracellular Ca^2+ with a FLIPR (Molecular Devices).

SMILES	pIC50	IC50
S=C1Nc2ccc(Cl)cc2C(c2ccccc2)=N[C@@H]1Cc1ccccc1 (single isomer, unassigned) [Example 21]	5.94	–
S=C1Nc2ccc(Cl)cc2C(c2ccccc2)=N[C@H]1Cc1ccccc1 (single isomer, unassigned) [Example 30]	6.60	–
CC(C)[C@@H]1N=C(c2ccc(F)cc2)c2cc(OC(F)(F)F)ccc2NC1=S [Example 1, (3S)-5-(4-fluorophenyl)-3-isopropyl-7-(trifluoromethoxy)-1,3-dihydro-1,4-benzodiazepine-2-thione]	–	0.312 µM
CC(C)[C@@H]1N=C(c2ccccn2)c2cc(Br)ccc2NC1=S [Example 2, (3S)-7-bromo-3-propan-2-yl-5-pyridin-2-yl-1,3-dihydro-1,4-benzodiazepine-2-thione]	6.54	–
S=C1Nc2ccc(Cl)cc2C(c2ccccc2)=N[C@H]1CC1CC1 [Example 3, (3S)-7-chloro-3-(cyclopropylmethyl)-5-phenyl-1,3-dihydro-1,4-benzodiazepine-2-thione]	6.51	–
CC[C@@H]1N=C(c2ccccc2)c2cc(Cl)ccc2NC1=S [Example 4, (3S)-7-chloro-3-ethyl-5-phenyl-1,3-dihydro-1,4-benzodiazepine-2-thione]	6.99	–
CCC[C@]1(C)N=C(c2ccccc2)c2cc(Cl)ccc2NC1=S [Example 6, (3S)-7-chloro-3-methyl-5-phenyl-3-propyl-1H-1,4-benzodiazepine-2-thione]	6.98	–
CCC[C@@H]1N=C(c2ccccc2)c2cc(Cl)ccc2NC1=S [Example 7, (3S)-7-chloro-5-phenyl-3-propyl-1,3-dihydro-1,4-benzodiazepine-2-thione]	6.73	–
FC(F)(F)C[C@@H]1N=C(c2ccccc2)c2cc(Cl)ccc2NC1=S [Example 8, (3S)-7-chloro-5-phenyl-3-(2,2,2-trifluoroethyl)-1,3-dihydro-1,4-benzodiazepine-2-thione]	6.62	–
CSCC[C@H]1N=C(c2ccccc2)c2cc(Cl)ccc2NC1=S [Example 9, (3R)-7-chloro-3-(2-methylsulfanylethyl)-5-phenyl-1,3-dihydro-1,4-benzodiazepine-2-thione]	6.30	–
Fc1ccccc1C1=N[C@@H](C(F)(F)F)C(=S)Nc2ccc(Cl)cc21 [Example 10, (3S)-7-chloro-5-(2-fluorophenyl)-3-(trifluoromethyl)-1,3-dihydro-1,4-benzodiazepine-2-thione]	6.21	–
Fc1ccccc1C1=N[C@H](C(F)(F)F)C(=S)Nc2ccc(Cl)cc21 [Example 11, (3R)-7-chloro-5-(2-fluorophenyl)-3-(trifluoromethyl)-1,3-dihydro-1,4-benzodiazepine-2-thione]	6.21	–
CC1N=C(c2ccccc2)c2cc([N+](=O)[O-])ccc2NC1=S (stereo not shown) [Example 12, 3-methyl-7-nitro-5-phenyl-1,3-dihydro-1,4-benzodiazepine-2-thione]	6.14	–
Cc1ccc2c(c1)C(c1ccccc1F)=N[C@@H](C(C)C)C(=S)N2 [Example 13, (3S)-5-(2-fluorophenyl)-3-isopropyl-7-methyl-1,3-dihydro-1,4-benzodiazepine-2-thione]	7.21	–
CC(C)C1N=C(c2ccccc2)c2cc(Cl)ccc2NC1=S (stereo not shown) [Example 15, 7-chloro-3-isopropyl-5-phenyl-1,3-dihydro-1,4-benzodiazepine-2-thione]	7.19	–
CC(C)[C@@H]1N=C(c2ccccc2)c2cc(Cl)ccc2NC1=S [Example 16, (3S)-7-chloro-3-isopropyl-5-phenyl-1,3-dihydro-1,4-benzodiazepine-2-thione]	7.15	–
CCCC1=NCC(=S)Nc2ccc(Cl)cc21 [Example 17, 7-chloro-5-propyl-1,3-dihydro-1,4-benzodiazepine-2-thione]	–	1.28 µM
CC(C)[C@@H]1N=C(c2ccccc2)c2cc(C(F)(F)F)ccc2NC1=S [Example 18, (3S)-3-isopropyl-5-phenyl-7-(trifluoromethyl)-1,3-dihydro-1,4-benzodiazepine-2-thione]	7.15	–
CC(C)[C@@H]1N=C(c2ccccc2)c2cc(-c3ccccc3)ccc2NC1=S [Example 19, (3S)-3-isopropyl-5,7-diphenyl-1,3-dihydro-1,4-benzodiazepine-2-thione]	5.83	–
FC(F)(F)c1ccc2c(c1)C(C1CCCCC1)=NCC(=S)N2 [Example 20, 5-cyclohexyl-7-(trifluoromethyl)-1,3-dihydro-1,4-benzodiazepine-2-thione]	5.71	–

SMILES	pIC50	IC50
CC(C)[C@@H]1N=C(c2cccc(Cl)c2)c2cc(Cl)ccc2NC1=S [Example 22, (3S)-7-chloro-5-(3-chlorophenyl)-3-isopropyl-1,3-dihydro-1,4-benzodiazepine-2-thione]	6.76	–
CC(C)[C@@H]1N=C(c2ccccc2F)c2ccc(Cl)cc2NC1=S [Example 23, (3S)-8-chloro-5-(2-fluorophenyl)-3-isopropyl-1,3-dihydro-1,4-benzodiazepine-2-thione]	6.40	–
S=C1Nc2ccc(Cl)cc2C(c2ccccc2)=N[C@H]1C1CC1 [Example 24, (3S)-7-chloro-3-cyclopropyl-5-phenyl-1,3-dihydro-1,4-benzodiazepine-2-thione]	6.78	–
CC(C)[C@@H]1N=C(c2ccccc2)c2cc(OC(F)(F)F)ccc2NC1=S [Example 25, (3S)-3-isopropyl-5-phenyl-7-(trifluoromethoxy)-1,3-dihydro-1,4-benzodiazepine-2-thione]	6.63	–
CC(C)(O)C1N=C(c2ccccc2)c2cc(Cl)ccc2NC1=S (stereo not shown) [Example 26, 7-chloro-3-(1-hydroxy-1-methyl-ethyl)-5-phenyl-1,3-dihydro-1,4-benzodiazepine-2-thione]	5.73	–
CC(C)C[C@@H]1N=C(c2ccccc2F)c2cc(Cl)ccc2NC1=S [Example 27, (3S)-7-Chloro-5-(2-fluorophenyl)-3-isobutyl-1,3-dihydro-1,4-benzodiazepine-2-thione]	6.19	–
S=C1Nc2ccccc2C(c2ccccc2)=NC1Cc1ccc(Cl)c(Cl)c1 (stereo not shown) [Example 28, 3-[(3,4-Dichlorophenyl)methyl]-5-phenyl-1,3-dihydro-1,4-benzodiazepine-2-thione]	5.78	–
Fc1ccccc1C1=N[C@@H](c2ccccc2)C(=S)Nc2ccc(Cl)cc21 [Example 29, (3S)-7-Chloro-5-(2-fluorophenyl)-3-phenyl-1,3-dihydro-1,4-benzodiazepine-2-thione]	5.83	–
S=C1Nc2ccc(Cl)cc2C(c2ccccc2)=NC1c1ccccc1 (stereo not shown) [Example 31, 7-chloro-3,5-diphenyl-1,3-dihydro-1,4-benzodiazepine-2-thione]	6.10	–
CC(C)[C@@H]1N=C(c2cccnc2)c2cc(Br)ccc2NC1=S [Example 32, (3S)-7-bromo-3-isopropyl-5-(3-pyridyl)-1,3-dihydro-1,4-benzodiazepine-2-thione]	6.56	–
CSCC[C@@H]1N=C(c2ccccc2)c2cc(Cl)ccc2NC1=S [Example 33, (3S)-7-chloro-3-(2-methylsulfanylethyl)-5-phenyl-1,3-dihydro-1,4-benzodiazepine-2-thione]	5.92	–
CC(C)[C@H]1N=C(c2ccccc2F)c2cc(Cl)ccc2NC1=S [Example 34, (3R)-7-chloro-5-(2-fluorophenyl)-3-isopropyl-1,3-dihydro-1,4-benzodiazepine-2-thione]	6.38	–
CC(C)[C@H]1N=C(c2ccccc2)c2cc(Cl)ccc2NC1=S [Example 35, (3R)-7-chloro-3-isopropyl-5-phenyl-1,3-dihydro-1,4-benzodiazepine-2-thione]	6.28	–
CC(C)C[C@@H]1N=C(c2ccccc2)c2cc(Cl)ccc2NC1=S [Example 36, (S)-7-Chloro-3-isobutyl-5-phenyl-1,3-dihydro-benzo[e][1,4]diazepine-2-thione]	6.50	–
CCC1N=C(c2ccccc2F)c2cc(N)ccc2NC1=S (stereo not shown) [Example 37, 7-amino-3-ethyl-5-(2-fluorophenyl)-1,3-dihydro-1,4-benzodiazepine-2-thione]	5.22	–
COC(C)C1N=C(c2ccccc2)c2cc(Cl)ccc2NC1=S (stereo not shown) [Example 38, 7-chloro-3-(1-methoxyethyl)-5-phenyl-1,3-dihydro-1,4-benzodiazepine-2-thione]	6.45	–
CC(C)[C@@H]1N=C(C2CCCCC2)c2cc(Cl)ccc2NC1=S [Example 39, (3S)-7-chloro-5-cyclohexyl-3-isopropyl-1,3-dihydro-1,4-benzodiazepine-2-thione]	–	0.414 µM
COc1ccc2c(c1)C(c1ccccc1)=N[C@@H](C(C)C)C(=S)N2 [Example 40, (3S)-3-isopropyl-7-methoxy-5-phenyl-1,3-dihydro-1,4-benzodiazepine-2-thione]	6.25	–
CC1N=C(c2ccccc2)c2ccccc2NC1=S (stereo not shown) [Example 41, 3-methyl-5-phenyl-1,3-dihydro-1,4-benzodiazepine-2-thione]	6.26	–
CCC1CN(c2ccccc2)c2cc(Cl)ccc2NC1=S (stereo not shown) [Example 42]	7.30	–
